What all share (format): physicochemical
Data set [1] can be described thus: oil/water partition coefficient (K-value), static batch experiments, model oil.
Data set [2] can be described thus: oil/water partition coefficient (K-value), static batch experiments, field oil phases North field 1 and North field 2. The following applies: ionic strength in aqueous phase 0.776, pH 6.2, 50° C.
Data set [3] is described as follows: K-values of tested compounds A to G. The source says: Some tested compounds having other combinations of substitution and hydroxyalkyl group position include compounds A to G shown in FIG. 3.
These compounds have K-values measured as follows:
The K-values can vary with pH, as shown below for compounds B and F: […]

Setting [4] is: pH (aqueous phase) 6.2, ionic strength in aqueous phase 0.776, model oil (isooctane 60%/toluene 30%/1-octanol 10%), 50° C.
Setting [5] is: pH (aqueous phase) 7.0, ionic strength in aqueous phase 0.776, model oil (isooctane 60%/toluene 30%/1-octanol 10%), 50° C.
Setting [6] is: pH (aqueous phase) 8.0, ionic strength in aqueous phase 0.776, model oil (isooctane 60%/toluene 30%/1-octanol 10%), 50° C.

Take “2,3-difluoro hydroxybenzoic acid [reference compound]”: the “oil/water partition coefficient, K-value” in data set [1] (setting [4]), in data set [1] (setting [5]) and in data set [1] (setting [6]) was 0.0 throughout.

On to `O=C(O)c1ccc(CO)cc1F` [2-fluoro-4-(hydroxymethyl) benzoic acid, 2-Fluoro-4-(hydroxymethyl)benzoic acid], for which the “oil/water partition coefficient, K-value” in data set [2] (oil phase North field 1), in data set [2] (oil phase North field 2), in data set [1] (pH 6.2), in data set [1] (pH 7) and in data set [1] (pH 8) was 0.0 each time.

With `COC(=O)c1c(F)ccc(CO)c1F` [B, Methyl ester of 2-6-difluoro-3-hydroxymethyl benzoic acid], the K-value in data set [3] (pH (aqueous phase) 6.2) was found to be 3.0; in data set [3] (pH (aqueous phase) 7.0), 2.8; in data set [3] (pH (aqueous phase) 8.0), 2.4.

Regarding `CCCCOC(=O)c1ccc(CO)cc1F` [Butyl ester of 2-fluoro-4-(hydroxymethyl) benzoic acid], the “oil/water partition coefficient, K-value” in data set [2] (oil phase North field 1) is on record as 18.7; in data set [2] (oil phase North field 2), 23.6; in data set [1] (setting [4]) it was 127.5; in data set [1] (setting [5]), 126.1; in data set [1] (setting [6]), 132.2.

As for `CCOC(=O)c1ccc(CO)cc1F` [Ethyl ester of 2-fluoro-4-(hydroxymethyl) benzoic acid], the “oil/water partition coefficient, K-value” in data set [2] (oil phase North field 1) was 1.6; in data set [2] (oil phase North field 2), 2.5; in data set [1] (setting [4]) it was 10.9; in data set [1] (setting [5]) it was 11.2; in data set [1] (setting [6]) it was 11.8.

Consider `CCOC(=O)c1cc(F)cc(CO)c1` [F, Ethyl ester of 3-fluoro-5-hydroxymethyl benzoic acid], for which the K-value in data set [3] (pH (aqueous phase) 6.2) came out at 6.7; in data set [3] (pH (aqueous phase) 7.0), 6.3; in data set [3] (pH (aqueous phase) 8.0), 6.1.

As to `COC(=O)c1ccc(CO)cc1F` [Methyl ester of 2-fluoro-4-(hydroxymethyl) benzoic acid], the “oil/water partition coefficient, K-value” in data set [2] (oil phase North field 1) stood at 0.6; in data set [2] (oil phase North field 2) it was 0.8; in data set [1] (setting [4]) it was 3.2; in data set [1] (setting [5]) it was 3.4; in data set [1] (setting [6]) it was 3.3.

As to `CCCOC(=O)c1ccc(CO)cc1F` [Proply ester of 2-fluoro-4-(hydroxymethyl) benzoic acid], the “oil/water partition coefficient, K-value” in data set [2] (oil phase North field 1) is 5.9; in data set [2] (oil phase North field 2), 7.5; in data set [1] (setting [4]), 41.7; in data set [1] (setting [5]), 44.2; in data set [1] (setting [6]) it was 48.7.

The values above are taken from patent US10351759B2, “Methods of assessing oil field saturation through use of reactive partitioning tracers” (RESTRACK AS, priority 2014, dated 2019).
